Measured values taken from patent US20220120753A1, “METHOD FOR DETERMINING PROGNOSIS OF CANCER” (The University of Tokyo, priority 2018, published 2022).
Read-outs that look alike come from different tables or passages of the source.

Tests used:
[1] = test system: ERα-positive/HER2-negative breast cancer; test: Relapse-free survival of ERα-positive/HER2-negative breast cancer patients stratified by Fbxo22; type: in vivo, human; details: patient group that had undergone the TAM treatment
Description: FIGS. 9A and 9B show representative immunohistochemical staining images of a normal mammary gland (FIG. 9A), an Fbxo22-positive mammary gland of human breast cancer (FIG. 9B, left view), and an Fbxo22-negative mammary gland (FIG. 9B, right view). Scale bar: 20 μm. FIGS. 9C to 9F show Kaplan-Meier survival curves formed by stratifying ERα-positive/HER2-negative breast cancer (FIG. 9C), Luminal A (low Ki-67) breast cancer (FIG. 9D), lymph node metastasis-negative breast cancer (FIG. 9E), and tamoxifen-administered breast cancer (FIG. 9F) by the expression of Fbxo22. The P value and the hazard ratio were calculated according to a log-rank test.
Formalin fixing, paraffin embedding, core needle aspiration biopsy cytology panels, and the clinical data thereof, which were derived from 163 cases of continuously treated T2 (diameter: 2 to 5 cm) ERα-positive/HER-2-negative primary breast cancers, were obtained from patients who underwent surgery at St. Marianna University School of Medicine Hospital from 2005 to 2009. […] A tissue section was incubated with anti-Fbxo22 antibody (GTX117774, GeneTex) used as a primary antibody, which was diluted to 1:200, and was then detected using an HRP-polymer-labeled secondary antibody (Histofine Simple Stain MAX PO (multi), Nichirei, Japan). […] The Fbxo22-positive cells were evaluated according to a blind test conducted by two pathologist. […]

[2] = test system: ERα-positive breast cancer; details: cited from earlier work
T47D cells = test: Colony formation assay, T47D cells; type: cell-based, human; details: Fbxo22-knocked-out T47D cells in the presence of E2 and 4-OHT, compared with control cells
Description: The cells (5×10^2) were seeded on a 6-well plate, and were then cultured for 2 weeks. Thereafter, colonies were immobilized with methanol/acetic acid (1:1) for 15 minutes, and were then stained in 20% methanol/PBS containing 0.4% trypan blue (Sigma) for 15 minutes, followed by counting.

ERα [3] = details: U2OS cells, Fbxo22 not expressed
Description: (§1) The obtained cells were immunostained with anti-FLAG antibodies. Representative images are shown.
(§2) Quantitative RT-PCR was carried out according to the method described in Johmura et al., Molecular Cell 55: 73-84, 2014. Total RNA was extracted using ISOGEN II (Wako), and using this as a template, cDNA was synthesized using SuperScript II cDNA synthesis kit (Invitrogen). PCR amplification was carried out in a 96-well optical reaction plate, using Power SYBR Green PCR Master Mix (Applied Biosystems). The relative expression ratio of individual genes was normalized with respect to the expression level of GAPDH.

[4] = test system: ERα-dependent transcription; test: qPCR of ERα target gene transcripts (EBAG9, GREB1) in MCF-7 cells; type: cell-based, human
Description: (§3) Using total RNA derived from individual cells recovered over time, qPCR was carried out. […] Using total RNA prepared from the treated cells, qPCR was carried out. […] Using the nucleus extract, immunoprecipitation and immunoblotting were carried out.
Using total RNA prepared from the cells over time, qPCR was carried out.
(§4) Total RNA was prepared from the cells treated with various drugs, and qPCR was carried out.
The cells were washed with PBS three times, and were then cultured in phenol red-non-added DMEM (supplemented with 5% charcoal-stripped FBS) for 72 hours.
as §2

[5] = test system: ERα complex with KDM4B and SRC-3
Sequence of ERα complex with KDM4B and SRC-3 (P03372 whole entry, one chain of several): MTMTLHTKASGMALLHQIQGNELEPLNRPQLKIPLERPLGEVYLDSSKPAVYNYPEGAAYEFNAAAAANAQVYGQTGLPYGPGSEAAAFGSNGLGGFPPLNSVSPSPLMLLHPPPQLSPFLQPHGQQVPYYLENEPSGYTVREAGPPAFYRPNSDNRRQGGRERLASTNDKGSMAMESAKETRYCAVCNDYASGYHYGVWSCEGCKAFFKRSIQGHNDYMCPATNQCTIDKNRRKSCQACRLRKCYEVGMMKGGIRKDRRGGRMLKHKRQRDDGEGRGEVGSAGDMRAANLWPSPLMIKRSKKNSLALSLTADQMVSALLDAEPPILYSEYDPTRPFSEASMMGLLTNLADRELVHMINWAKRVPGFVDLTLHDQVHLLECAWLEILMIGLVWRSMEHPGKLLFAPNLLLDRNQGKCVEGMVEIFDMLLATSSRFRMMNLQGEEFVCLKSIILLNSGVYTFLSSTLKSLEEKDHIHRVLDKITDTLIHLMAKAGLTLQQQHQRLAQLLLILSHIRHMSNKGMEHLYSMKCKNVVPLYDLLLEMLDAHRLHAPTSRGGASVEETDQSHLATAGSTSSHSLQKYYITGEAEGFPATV
Description: as §3, §1, §4
(§5) Immunoprecipitation and immunoblotting were carried out according to the method described in Johmura et al., Molecular Cell 55: 73-84, 2014. The cells were dissolved in a TBSN buffer (20 mM Tris-Cl (pH 8.0), 150 mM NaCl, 0.5% NP-40, 5 mM EGTA, 1.5 mM EDTA, and 0.5 mM Na3VO4). The obtained cell lysate was centrifuged at 4° C. at 15,000×g for 20 minutes, and was then used in immunoprecipitation using an antibody.
Regarding immunoprecipitation of ERα and KDM4B, a nuclear extract was prepared according to the method described in Hirokawa et al., Cancer Res. 74: 3880-3889, 2014. Cell pellets were suspended in buffer A (10 mM Hepes-KOH pH 7.9, 10 mM KCl, 1.5 mM MgCl2, 0.5 mM DTT, 0.5 mM PMSF, and protease inhibitor cocktail (Nakalai Tesque)) having five times the volume of the cell pellets, and the suspension was then incubated on ice for 5 minutes. Thereafter, the cells were centrifuged at 4° C. at 500×g for 5 minutes, and the obtained cell pellets were then suspended in buffer A having two times the volume of the cell pellets for homogenization. The homogenized cell suspension was centrifuged at 4° C. at 4,000×g for 5 minutes, and a cell nucleus was recovered in a precipitate. To the recovered nucleus, an equal amount of buffer B (20 mM Hepes-KOH pH 7.9, 600 mM KCl, 1.5 mM MgCl2, 0.2 mM EDTA, 25% glycerol, 0.5 mM DTT, 0.5 mM PMSF, and protease inhibitor cocktail) was added and suspended, and the obtained mixture was then blended at 4° C. for 30 minutes, using a rotator. The nuclear extract was centrifuged at 4° C. at 16,000×g for 15 minutes, and was then recovered in a supernatant. The nuclear extract was dialyzed against buffer C (20 mM Hepes-KOH pH 7.9, 100 mM KCl, 0.2 mM EDTA, 20% glycerol, 0.5 mM DTT, and 0.5 mM PMSF). After completion of the dialysis, the nuclear extract was centrifuged at 4° C. at 16,000×g for 30 minutes, and the remaining precipitate was then eliminated.
A protein (20 to 50 μg) was separated from the total cell lysate by SDS-PAGE, and was then transferred into a PVDF membrane (Millipore), which was then used in immunoblotting using various types of antibodies.

T47D breast cancer cells = test: T47D cells transplanted into the mammary gland fat pad of NOD/Scid mice; type: in vivo, mouse; details: NOD/Scid mice with Fbxo22-knocked-out T47D cells treated with 4-OHT pellets, compared with mice with control cells
Description: Representative colony images (upper view) and the results of the assay are shown. […] Ki-67-positive and cleaved caspase 3-positive cells were counted, and the counted numbers were then normalized with respect to the cell nucleus in each section. *p<0.05, ***p<0.05. […] Thereafter, the cells were treated with trypsin, were then suspended in PBS, and were then mixed with Matrigel (CORNING 354230) at a mixing ratio of 1:1. […] Six weeks later, the mice were euthanized, the tumor was then excised, and the size of the tumor was then measured. Thereafter, the tumor was fixed with formalin and was then embedded in paraffin, and an HE stain slide glass was produced. The size of a tumor was evaluated as follows: V=(length×width×height×0.5326) mm^3. All of the mice were fed under a specific pathogen-free environment, and were treated in accordance with Animal Experiment Guidelines, Graduate School of Medicine and Faculty of Medicine, The University of Tokyo.

[6] = test system: CFP-LacER, YFP-SRC-1 and FLAG-KDM4B foci; details: in the presence of E2 and 4-OHT
Sequence of CFP-LacER, YFP-SRC-1 and FLAG-KDM4B foci (P03372 311-547 limits assumed): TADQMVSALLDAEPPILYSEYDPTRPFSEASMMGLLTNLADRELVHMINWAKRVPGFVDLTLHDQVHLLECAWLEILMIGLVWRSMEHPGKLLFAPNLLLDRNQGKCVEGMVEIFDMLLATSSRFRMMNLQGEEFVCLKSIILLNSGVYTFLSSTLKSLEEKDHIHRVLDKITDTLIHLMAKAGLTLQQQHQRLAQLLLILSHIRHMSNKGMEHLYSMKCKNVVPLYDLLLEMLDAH
Description: as §1
U205-LacO-I-SceI-TetO cells were cultured in a glass bottom dish (Iwaki) on the stage of BZ-9000 (Keyence) equipped with an environmental chamber (Keyence). The microscopic image was analyzed with BZ-9000 software.
In order to immobilize ERα on a Lac operator array stably incorporated into living cells, using a CFP-tagged lac receptor-ERα chimeric protein (CFP-LacER), accumulation of YFP-SRC-1 and KDM4B in an ERα-immobilized position was examined.

ERα [7] = test: ChIP-Seq analysis of ERα binding in MCF-7 cells; type: cell-based, human; details: for ERα accumulation peaks detected: 2 hours, E2 line = E2 (10 nM), 4-OHT line = E2+4-OHT
Description: Thereafter, DNA was extracted using a DNA purification column.

[8] = test system: KDM4B forming a complex with ERα
Sequence of KDM4B forming a complex with ERα (P03372 whole entry, one chain of several): as the sequence (P03372 whole entry, one chain of several) above

[9] = test system: FLAG-Fbxo22 binding to ERα
Sequence of FLAG-Fbxo22 binding to ERα (P03372 whole entry): as the sequence (P03372 whole entry, one chain of several) above
Description: as §5

MCF-7 cells = test: Colony formation assay, MCF-7 cells; type: cell-based, human
Description: Representative colony images (upper view) and the results of the assay are shown. […] Ki-67-positive and cleaved caspase 3-positive cells were counted, and the counted numbers were then normalized with respect to the cell nucleus in each section. *p<0.05, ***p<0.05. The cells (5×10^2) were seeded on a 6-well plate, and were then cultured for 2 weeks. Thereafter, colonies were immobilized with methanol/acetic acid (1:1) for 15 minutes, and were then stained in 20% methanol/PBS containing 0.4% trypan blue (Sigma) for 15 minutes, followed by counting.

CC/C(=C(\c1ccccc1)c1ccc(OCCN(C)C)cc1)c1ccccc1 [TAM, Tamoxifen]
prognosis (relapse-free survival) of Fbxo22-negative breast cancer [1]: extremely poor prognosis | reduction of annual breast cancer mortality rate ([2]; TAM therapy): approximately 30% | early breast cancer patients with a recurrence within 15 years ([2]; patients treated by TAM): approximately 25%

4-hydroxytamoxifen [4-OHT]
colony formation (T47D cells): significantly promoted | antagonistic activity of 4-OHT (ERα [3]; wild-type ERα expressed, stimulated by E2): suppressed | antagonistic activity of 4-OHT (ERα [3]; Δ44 ERα expressed): observed | antagonistic activity of 4-OHT on transcription of EBAG9 and GREB1 ([4]; Fbxo22-depleted MCF-7 cells): suppressed | time after addition of 4-OHT at which transcript levels of GREB1 and EBAG1 became minimum ([4]; MCF-7, E2-depleted 72 h, E2 10 nM, 4-OHT 100 nM added 6 hours after E2): Six | transcription of EBAG9 and GREB1 ([4]; control MCF-7 cells stimulated by E2, treated with 4-OHT): strongly suppressed | cofactor dynamics (KDM4B/SRC-3 dissociation, N-CoR interaction with ERα) ([5]; Fbxo22-depleted MCF-7 cells, E2 then 4-OHT): not observed | complex of ERα with KDM4B and SRC-3 ([5]; control MCF-7 cells stimulated by E2, then 4-OHT): dissociated | tumor growth (tumor volume) (T47D breast cancer cells): clear increase | colocalization of FLAG-KDM4B with CFP-LacER and YFP-SRC-1 ([6]; Fbxo22-depleted cells): colocalized | colocalization of FLAG-KDM4B with CFP-LacER and YFP-SRC-1 ([6]; control cells): not observed | ERα accumulation peaks detected (ERα [7]; Fbxo22-depleted MCF-7 cells): 19,924 | interaction of ERα with a target region (ERα [7]; MCF-7 cells, E2+4-OHT versus E2): does not affect | accumulation of ERα in the promoter regions of GREB1 and IGFBP4 genes (ERα [7]; control and Fbxo22-depleted MCF-7 cells, E2 line = E2, 4-OHT line = E2+4-OHT): maintained | ERα accumulation peaks detected (ERα [7]; wild-type/control MCF-7 cells): 26,751 | ubiquitination of KDM4B forming a complex with ERα [8]: recovered | FLAG-Fbxo22 binding to ERα [9]: recovered (increased) | proliferation-suppressing effect of 4-OHT (MCF-7 cells; Fbxo22-depleted MCF-7 cells): reduced | proliferation-suppressing effect of 4-OHT (MCF-7 cells; Fbxo22-depleted MCF-7 cells with Fbxo22 re-expressed (FLAG-Fbxo22)): recovered | proliferation (colony formation) in the presence of E2 (MCF-7 cells; control MCF-7 cells, E2 10 nM, 4-OHT 100 nM): completely suppressed
